Test results published in article PMC6934184, “Selective DNA-PKcs inhibition extends the therapeutic index of localized radiotherapy and chemotherapy” (The Journal of Clinical Investigation, 2019).

Biological target: T1, MELK (Homo sapiens, UniProt Q14680)
T1 construct: purchased Thermo Fisher Scientific (Life Technologies) SelectScreen
Test: SelectScreen Z'LYTE
Format: biochemical
Method in brief: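 SelectScreen broad panel; activity (Z'LYTE, Adapta) plus binding formats. ATP: Km app for CSF1R Z'LYTE; 10 for CAMK1 Adapta. Readout = % per kinase.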

T1 sequence (Q14680 whole entry): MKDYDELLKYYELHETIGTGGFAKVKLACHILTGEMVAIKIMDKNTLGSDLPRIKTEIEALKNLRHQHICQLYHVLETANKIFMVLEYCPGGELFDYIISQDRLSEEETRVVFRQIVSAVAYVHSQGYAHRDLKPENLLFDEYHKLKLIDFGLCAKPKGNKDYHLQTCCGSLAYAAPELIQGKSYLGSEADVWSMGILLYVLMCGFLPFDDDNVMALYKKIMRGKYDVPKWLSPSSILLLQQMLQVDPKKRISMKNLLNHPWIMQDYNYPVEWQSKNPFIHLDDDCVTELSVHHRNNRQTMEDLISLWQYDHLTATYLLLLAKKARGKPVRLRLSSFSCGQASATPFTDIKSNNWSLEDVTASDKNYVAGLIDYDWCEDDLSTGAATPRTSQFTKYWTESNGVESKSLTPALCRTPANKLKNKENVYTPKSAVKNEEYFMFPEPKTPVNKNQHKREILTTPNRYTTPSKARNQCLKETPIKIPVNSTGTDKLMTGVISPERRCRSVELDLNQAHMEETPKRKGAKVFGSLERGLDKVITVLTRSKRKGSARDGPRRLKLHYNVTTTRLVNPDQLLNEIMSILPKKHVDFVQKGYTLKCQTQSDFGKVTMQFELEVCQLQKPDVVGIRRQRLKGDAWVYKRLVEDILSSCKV

**Q.** `CN(C(=O)CN1CCOCC1)c1ccc2sc3c(-c4cccc5c(=O)cc(N6CC7CCC(C6)O7)oc45)cccc3c2c1` [NU5455] was tested. Which inhibition at 1 µM did it give?
**A.** The inhibition at 1 µM was -11.8%.
